Experiments:
[1] = Solution in polyethylene glycol monomethyl ether (7 EO); assay type: physicochemical; details: dissolved in polyethylene glycol monomethyl ether (7 EO), room temperature, based on the total solution
Description: A solution was accessible which, based on the total solution, comprised 60% by weight of the light protection agent.
The light protection agent 2-hydroxy-4-methoxybenzophenone (benzophenone-3) could be dissolved at room temperature in polyethylene glycol monomethyl ether (7 EO), the fraction of light protection agent in the solution being more than 30% by weight.
2-Hydroxy-4-methoxybenzophenone-5-sulfonic acid could be dissolved in polyethylene glycol monomethyl ether (7 EO), the resulting solution comprising more than 10% by weight of the light protection agent. The per se water-soluble light protection agent could be introduced into an oil phase as polyethylene glycol monomethyl ether (7 EO) solution so that it could be used in this formulation as oil-soluble light protection filter.
(§1) Salicylic acid was dissolved at room temperature in polyethylene glycol monomethyl ether (7 EO). A solution was accessible which comprised more than 10% by weight of salicylic acid in the acid form. The solution could be introduced in any fractions into C12-C15-alcohol benzoate without resulting in precipitation of the salicylic acid.

[2] = Mixing of the ether alcohol solution into C12-C15-alcohol benzoate, stability of the resulting system; assay type: physicochemical; details: for miscibility of the solution with C12-C15-alcohol benzoate: solution in polyethylene glycol monomethyl ether (7 EO)
Method: At room temperature (25° C.), a storage time of more than 7 days was determined without resulting in flocculation or phase separation.
as §1

[3] = cited from earlier work

| fraction of the compound in the accessible solution [1] | storage time without flocculation or phase separation ([2]; 60% strength solution in C12-C15-alcohol benzoate, room temperature (25° C.)) | miscibility of the solution with C12-C15-alcohol benzoate [2] | SMILES | fraction of light protection agent in solutions hitherto accessible [3] |
| --- | --- | --- | --- | --- |
| 60 % by weight | more than 7 days | any mixing ratios | CCCCC(CC)COC(=O)c1ccc(Nc2nc(Nc3ccc(C(=O)OCC(CC)CCCC)cc3)nc(Nc3ccc(C(=O)OCC(CC)CCCC)cc3)n2)cc1 (centres unmarked) [2,4,6-trianilino-p-(carbo-2′-ethylhexyl-1′-oxy)-1,3,5-triazine] |  |
| more than 10 % by weight |  | any fractions | O=C(O)c1ccccc1O [Salicylic acid, reference compound] |  |
| more than 30 % by weight |  |  | COc1ccc(C(=O)c2ccccc2)c(O)c1 [2-hydroxy-4-methoxybenzophenone] | at most 20 % by weight |

| SMILES | fraction of the compound in the accessible solution [1] | storage time without flocculation or phase separation ([2]; 60% strength solution in C12-C15-alcohol benzoate, room temperature (25° C.)) | miscibility of the solution with C12-C15-alcohol benzoate [2] | fraction of light protection agent in solutions hitherto accessible [3] |
| --- | --- | --- | --- | --- |
| COc1cc(O)c(C(=O)c2ccccc2)cc1S(=O)(=O)O [2-Hydroxy-4-methoxybenzophenone-5-sulfonic acid] | more than 10 % by weight |  |  |  |

Reference: patent US20060099157A1, “Ether alcohols used as solvents and emulsifiers and dispersions containing said ether alcohols” (IFAC GmbH & Co. KG, priority 2002, published 2006)
